The values that follow come from patent US11242354B2, “4-sulfur substituted podophyllotoxin derivative and preparation method therefor and use thereof” (priority 2017, dated 2022).

The IC50 is the concentration that gives 50% inhibition.

In one data set the test system is HepG2. Nature of the data set: MTT test for inhibition of tumor cells, HepG2. Type of data set: cell-based. To be noted: 48 h. (In general: Tetrazolium assays rely on reduction of a dye to a coloured formazan, in cell work by metabolically active cells.)
The test system of the next data set is HeLa. Nature of the data set: MTT test for inhibition of tumor cells, HeLa. Type of data set: cell-based. Conditions: 48 h.
The subject of data set [1] is human normal hepatocytes HL-7702. Description: MTT test on human normal hepatocytes HL-7702. To be noted: read-out: IC50 HL-7702.
Procedure: (§1) HepG2, HeLa cell lines and human normal liver cells HL-7702 in a logarithmic growth period were centrifuged at 1000 rpm for 5 min, and the supernatant was discarded, the cells were suspended with a suitable amount of culture medium to adjust the cell concentration to 3.5×10^4/well, the cells were seeded in 96-well plates, and the following experimental groups were set:
(§2) 100 μl of DMSO was added to each well, followed by shaking on a shaker for 30 min at 37° C., the absorbance (OD) was measured at 492 nm, and the MTT ratio was calculated as the OD value of drug group/OD value of negative control group.
For data set [2], the system named is human lung cancer cell A549. Description: Activity on tumor cell A549. Type of data set: cell-based. To be noted: vs etoposide.
In the next data set the test system is breast cancer cell MCF7. Nature of the data set: Activity on tumor cell MCF7. Type of data set: cell-based, human. To be noted: for antitumor activity on MCF7 compared with etoposide: vs etoposide.
For data set [3], the system named is human normal hepatocytes HL-7702.
Procedure: as §1, §2
Data set [4] deals with human cervical immortalized cells H8. Nature of the data set: Toxicity on normal cell line H8. Type of data set: cell-based.
For data set [5], the system named is human embryonic lung cells MRC-5. Nature of the data set: Toxicity on normal cell line MRC-5. To be noted: MRC5. Type of data set: cell-based.
Data set [6] concerns human mammary epithelial cells HMEC. Description: Toxicity on normal cell line HMEC. Type of data set: cell-based.
The mark [7] stands for this setting: human normal hepatocytes HL-7702, MTT, 48 h.

Like-named read-outs stand apart in the source and are kept apart here. A value given as a limit tells only on which side of the number the result lay.

Procedure for HeLa: as §1, §2
Procedure for HepG2: as §1, §2

“4β-S-(3-phenyl-1,3,4-thiadiazol-2(3H)thione potassium salt-5)-4demethylepipodophyllotoxin [Compound 26]”: the IC50 in the data set with HepG2 turned out to be 5.7 ± 0.33 µM; in the data set with HeLa, 48.49 ± 0.38 µM.
For “4β-S-(3-phenyl-1,3,4-thiadiazol-2(3H)thione potassium salt-5)-podophyllotoxin [Compound 25]” the same measures were 2.2 ± 0.28 µM and 31.9 ± 0.42 µM.
With “4β-S-(5-phenylbenzoxazol-2)-4demethylepipodophyllotoxin [Compound 12]”, the results for the IC50 (in the data set on HepG2; with HeLa; in data set [1] (setting [7])) were 10.2 ± 0.46 µM, above 100 µM and 56.8 ± 1.32 µM, respectively.
“4β-S-(5-phenylbenzoxazol-2)-podophyllotoxin [Compound 11]”: the IC50 with HepG2 is 5.25 ± 0.13 µM; in the data set on HeLa it was above 100 µM; in data set [1] (setting [7]), 70.7 ± 1.65 µM.
The corresponding values for “4β-S-(6-chlorobenzoxazol-2)-4demethylepipodophyllotoxin [Compound 16]” are 22.3 ± 1.46 µM, 32.3 ± 1.87 µM and 68.3 ± 4.5 µM.
Regarding “4β-S-(6-chlorobenzoxazol-2)-podophyllotoxin [Compound 15]”, the IC50 in the data set with HepG2 stood at 5.23 ± 0.35 µM; with HeLa it was 7.23 ± 0.44 µM; in data set [1] (setting [7]) it was 43.3 ± 3.5 µM.
Consider `COc1cc(C2c3cc4c(cc3C(Sc3cc(C(F)(F)F)ccn3)C3COC(=O)C23)OCO4)cc(OC)c1OC` (stereo not drawn) [Compound 1, 4-β-S-(4-trifluoromethylpyridin-2)-podophyllotoxin], for which the IC50 turned out to be 2.04 ± 0.3 µM in the data set on HepG2, 1.86 ± 0.2 µM with HeLa and 57 ± 1.1 µM in [1] (setting [7]).
For `COc1cc(C2c3cc4c(cc3C(Sc3cc(C(F)(F)F)ccn3)C3COC(=O)C23)OCO4)cc(OC)c1O` (stereo not drawn) [Compound 2, 4-β-S-(4-trifluoromethylpyridin-2)-4demethylepipodophyllotoxin], the IC50 in the data set on HepG2 was 4.5 ± 0.45 µM; with HeLa it was 4.58 ± 0.13 µM; in [1] (setting [7]) it was 42.3 ± 1.52 µM.
Consider `COc1cc(C2c3cc4c(cc3C(Sc3nccc(C(F)(F)F)n3)C3COC(=O)C23)OCO4)cc(OC)c1OC` (stereo not drawn) [Compound 3, 4-β-S-(4-trifluoromethylpyrimidin-2)-podophyllotoxin], for which the IC50 in the data set with HepG2 was 5.05 ± 0.78 µM; with HeLa it was 10.1 ± 0.22 µM; in data set [1] (setting [7]) it was 69.8 ± 1.23 µM.
In the case of `COc1cc(C2c3cc4c(cc3C(Sc3nccc(C(F)(F)F)n3)C3COC(=O)C23)OCO4)cc(OC)c1O` (stereo not drawn) [Compound 4, 4-β-S-(4-trifluoromethylpyrimidin-2)-4demethylepipodophyllotoxin], the IC50 with HepG2 was 7.37 ± 0.32 µM; in the data set with HeLa, 39.36 ± 0.35 µM; in data set [1] (setting [7]), 54.9 ± 0.98 µM.
The corresponding values for `COc1cc(C2c3cc4c(cc3C(Sc3ccc(F)cc3)C3COC(=O)C23)OCO4)cc(OC)c1OC` (stereo not drawn) [Compound 5, 4β-S-(4-fluorobenzene-1)-podophyllotoxin] are 2.28 ± 0.1 µM, 9.5 ± 0.43 µM and 44.5 ± 1 µM.
For `COc1cc(C2c3cc4c(cc3C(Sc3nc5cc(F)ccc5s3)C3COC(=O)C23)OCO4)cc(OC)c1OC` (stereo not drawn) [Compound 7, 4β-S-(5-fluorobenzothiazol-2)-podophyllotoxin] the same measures were 1 ± 0.06 µM, 1.47 ± 0.32 µM and 97 ± 2.1 µM.
`COc1cc([C@@H]2c3cc4c(cc3[C@@H](Sc3nc5cc(F)ccc5s3)[C@H]3COC(=O)[C@H]23)OCO4)cc(OC)c1O` [Compound 8, 4β-S-(5-fluorobenzothiazol-2)-4demethylepipodophyllotoxin]: the “antitumor activity on A549 compared with etoposide” value in data set [2] was “significantly improved”. Also, the “antitumor activity on MCF7 compared with etoposide” value with breast cancer cell MCF7 is listed as “significantly improved”. For the same molecule, the “toxicity on HL-7702 cell line compared with control compounds” value in data set [3] is listed as “significantly lower”.
On to `COc1cc(C2c3cc4c(cc3C(Sc3nc5cc(F)ccc5o3)C3COC(=O)C23)OCO4)cc(OC)c1OC` (stereo not drawn) [Compound 9, 4β-S-(5-fluorobenzoxazol-2)-podophyllotoxin], for which the IC50 is 0.89 ± 0.07 µM in the data set on HepG2 and above 1000 µM in data set [1] (setting [7]).
For `COc1cc([C@@H]2c3cc4c(cc3[C@@H](Sc3nc5cc(F)ccc5o3)[C@H]3COC(=O)[C@H]23)OCO4)cc(OC)c1O` [Compound 10, 4β-S -(5-fluorobenzoxazol-2)-4demethylepipodophyllotoxin], the “antitumor activity on A549 compared with etoposide” value in data set [2] is reported as “significantly improved”. Also, the “antitumor activity on MCF7 compared with etoposide” value in the data set on breast cancer cell MCF7 is “significantly improved”. The “toxicity on HL-7702 cell line compared with control compounds” value in [3] is reported as “significantly lower”.
As for `COc1cc(C2c3cc4c(cc3C(Sc3nc5cc(C)ccc5o3)C3COC(=O)C23)OCO4)cc(OC)c1OC` (stereo not drawn) [Compound 13, 4β-S-(5-methylbenzoxazol-2)-podophyllotoxin], the figures for the IC50 (in the data set with HepG2; with HeLa; in data set [1] (setting [7])) were 7.31 ± 0.4 µM, 9.31 ± 0.6 µM and 60.1 ± 1.6 µM, respectively.
For `COc1cc(C2c3cc4c(cc3C(Sc3nc5cc(C)ccc5o3)C3COC(=O)C23)OCO4)cc(OC)c1O` (stereo not drawn) [Compound 14, 4β-S-(5-methylbenzoxazol-2)-4demethylepipodophyllotoxin] the same measures were 7.94 ± 0.21 µM, 11.9 ± 0.99 µM and 78.7 ± 2.5 µM.
For `COc1cc(C2c3cc4c(cc3C(Sc3nc5cc(OC(F)F)ccc5[nH]3)C3COC(=O)C23)OCO4)cc(OC)c1OC` (stereo not drawn) [Compound 17, 4β-S-(5-difluoromethoxybenzimidazol-2)-podophyllotoxin] the same measures were 0.92 ± 0.05 µM, 1.15 ± 0.16 µM and 8.15 ± 0.87 µM.
Take `COc1cc(C2c3cc4c(cc3C(Sc3nc5cc(OC(F)F)ccc5[nH]3)C3COC(=O)C23)OCO4)cc(OC)c1O` (stereo not drawn) [Compound 18, 4β-S-(5-difluoromethoxybenzimidazol-2)-4demethylepipodophyllotoxin]: the results for the IC50 (with HepG2; in the data set on HeLa; in [1] (setting [7])) were 2.09 ± 0.17 µM, 7.6 ± 0.51 µM and 11.3 ± 1.87 µM, respectively.
For `COc1cc(C2c3cc4c(cc3C(Sc3ccc5ccccc5c3)C3COC(=O)C23)OCO4)cc(OC)c1OC` (stereo not drawn) [Compound 19, 4β-S-(naphthalen-2)-podophyllotoxin] the same measures were 3.06 ± 0.11 µM, 3.91 ± 0.42 µM and 90.9 ± 3.49 µM.
The corresponding values for `COc1cc(C2c3cc4c(cc3C(Sc3nc5ncccc5[nH]3)C3COC(=O)C23)OCO4)cc(OC)c1OC` (stereo not drawn) [Compound 21, 4β-S-(1H-imidazo [4,5-B]pyridin-2)-podophyllotoxin] are 4.23 ± 0.36 µM, 64.23 ± 0.45 µM and 56.6 ± 2.34 µM.
On to `COc1cc(C2c3cc4c(cc3C(Sc3nnnn3-c3ccccc3)C3COC(=O)C23)OCO4)cc(OC)c1OC` (stereo not drawn) [Compound 23, 4β-S-(1-phenyltetrazol-5)-podophyllotoxin], for which the IC50 in the data set with HepG2 came to 6.17 ± 0.27 µM; in the data set on HeLa, 15.8 ± 0.56 µM; in data set [1] (setting [7]) it was 87.1 ± 4.2 µM.
For `COc1cc([C@@H]2c3cc4c(cc3[C@@H](Sc3nc(-c5ccncc5)cs3)[C@H]3COC(=O)[C@H]23)OCO4)cc(OC)c1OC` [Compound 27, 4β-S-(4-(4-pyridyl)thiazol-2)-podophyllotoxin] the same measures were 0.89 ± 0.19 µM, 1.95 ± 0.36 µM and 71.4 ± 2.71 µM.
For `COc1cc([C@@H]2c3cc4c(cc3[C@@H](Sc3nc(-c5ccncc5)cs3)[C@H]3COC(=O)[C@H]23)OCO4)cc(OC)c1O` [Compound 28, 4β-S-(4-(4-pyridyl)thiazol-2)-4demethylepipodophyllotoxin] the same measures were 29.2 ± 1.34 µM, 24.1 ± 1.29 µM and 60.1 ± 2.88 µM.
Consider `COc1cc([C@@H]2c3cc4c(cc3[C@@H](O[C@@H]3O[C@@H]5CO[C@@H](C)O[C@H]5[C@H](O)[C@H]3O)[C@H]3COC(=O)[C@H]23)OCO4)cc(OC)c1O` [Etoposide, etoposide, reference compound], for which the IC50 with HepG2 (Homo sapiens) came to 20.7 ± 1.7 µM; in the data set on HeLa (Homo sapiens), 25.4 ± 2.9 µM; in [4], 80.1 ± 1.35 µM; in [5], 30.3 ± 1.21 µM; in the data set on breast cancer cell MCF7 (Homo sapiens, tumor cell line MCF7) it was 56.8 ± 1.22 µM; in data set [6], 23.2 ± 1.34 µM. For the same molecule, the IC50 in data set [1] (Homo sapiens, L02, 48 h) was found to be 28.8 ± 3.4 µM.
Consider `COc1cc([C@@H]2c3cc4c(cc3[C@H](O)[C@H]3COC(=O)[C@H]23)OCO4)cc(OC)c1OC` [Podophyllotoxin, podophyllotoxin], for which the IC50 in the data set with HepG2 (Homo sapiens) was determined as 55.53 ± 0.24 µM; with HeLa (Homo sapiens) it was 75.81 ± 0.73 µM; in data set [1] (Homo sapiens, L02, 48 h), 67.18 ± 0.24 µM.
